Assay results reported in paper PMC9467586, “Development of novel 9-O-substituted-13-octylberberine derivatives as potential anti-hepatocellular carcinoma agents” (Journal of Enzyme Inhibition and Medicinal Chemistry, 2022).
Where two headings read alike, the source gives them in different places.

How the values were obtained:
Sk-Hep-1 cells = test: In vitro antiproliferative MTT assay, Sk-Hep-1 cells; type: cell-based, human; settings: mean ± SD (n = 3)
Protocol: (§1) HepG2, Sk-Hep-1, Huh-7, Hep3B and L-02 cells were purchased from Nanjing Key Gen Biotech Co. Ltd. (Nanjing, China). The cytotoxicity of test compounds was determined using an MTT assay. Briefly, the cell lines were incubated at 37 °C in a humidified 5% CO2 incubator for 24 h in 96-microwell plates. After medium removal, 100 μL of culture medium with 0.1% DMSO containing test compounds at different concentrations was added to each well and incubated at 37 °C for another 72 h. The MTT (5 mg/mL in PBS) was added and incubated for another 4 h, the optical density was detected with a microplate reader at 490 nm. The IC50 values were calculated according to the dose-dependent curves. All the experiments were repeated in at least three independent experiments.

[1] = Aqueous solubility measurement by HPLC; type: physicochemical; settings: 25 °C
Protocol: Berberine, 3c and 6k (5 mg) were dissolved in 1 ml PBS (50 mM, pH 7.4) at 25 °C. The suspension was sonicated for 30 min and then centrifuged at 15000 g for 5 min. The supernatant was filtered through a PTFE filter (0.2 μm) slowly. Then 10 μL filtered solution was injected into the HPLC system (Shimadzu DGU-20A3R) on a Shimadzu-GL WondaSil C18-WR column and quantified using the standard curves made by the corresponding known concentrations of berberine, 3c and 6k. The eluent was methanol/water (65/35, v/v) at a flow rate of 1.0 ml/min with the detection wavelength at 254 nm.

Hep3B cells = test: In vitro antiproliferative MTT assay, Hep3B cells; type: cell-based, human; settings: 72 h, mean ± SD (n = 3)
Protocol: as §1

Huh-7 cells = test: In vitro antiproliferative MTT assay, Huh-7 cells; type: cell-based, human; settings: 72 h, mean ± SD (n = 3)
Protocol: as §1

duplex DNA (F10T) = test: FRET-melting assay, F10T (duplex DNA model); type: binding; settings: 2 μM compounds
[2] = test system: human hepatoma cells including HepG2, Sk-Hep-1 and Huh-7 cells; test: Antiproliferative MTT assay, summary over human hepatoma cells; type: cell-based; settings: read-out: IC50 values against human hepatoma cells (span over cell lines)
Protocol: as §1

HepG2 cells = test: In vitro antiproliferative MTT assay, HepG2 cells; type: cell-based, human; settings: 72 h, mean ± SD (n = 3), read-out: IC50 (antiproliferative activity against HepG2 cells)
Protocol: as §1

normal hepatocytes L-02 = test: MTT cytotoxicity assay, normal hepatocytes L-02; type: cell-based; settings: normal hepatocytes L-02, MTT, 72 h, mean ± SD (n = 3)
Protocol: as §1

[3] = test system: H22 liver cancer xenograft; test: In vivo anti-HCC assay, H22 liver cancer xenograft mouse model; parameters: species or system mice; settings: intravenous, once a day for 21 days, H22 mice
Protocol: Five-week-old male Institute of Cancer Research (ICR) mice were purchased from Shanghai SLAC Laboratory Animals Co. Ltd. Briefly, a total of 1 × 10^6 H22 cells were subcutaneously inoculated into the right flank of ICR mice according to protocols of tumour transplant research, to initiate tumour growth. After incubation for one day, mice were weighed and randomly divided into 5 groups of 8 animals. The groups were administered berberine (30 mg/kg) and 6k (15 or 30 mg/kg) in a vehicle of 10% DMF/2% Tween 80/88% saline, respectively. Vehicle and cyclophosphamide (20 mg/kg) were employed as negative and positive controls, respectively. Treatments were performed by intravenous injection once per day for a total of 21 consecutive days. Body weights and tumour volumes were measured every 2 days. The mice were sacrificed after the treatments, and the tumours were excised and weighed. The tumour volume and inhibition rate (w/w) were calculated as follows: tumour volume = L × W^2/2, where L is the length and W is the width; tumour inhibitory ratio (%) = (1-average tumour weight of treated group/average tumour weight of control group) × 100%. All procedures were performed following institutional approval in accordance with the NIH Guide for the Care and Use of Laboratory Animals.

[4] = LWP coefficient (log D) measurement, shake flask; type: physicochemical
Protocol: Berberine, 3c and 6k of 1 mg were dissolved in three centrifugal tubes (5 ml) containing phosphate buffer (pH 7.4)-saturated 1-octanol solution (2 mL), followed by the addition of 1-octanol saturated PBS (2 mL). Each tube was vigorously mixed for 1 min and then shaken for 6 h at a speed of 1000 rpm at 37 °C. The mixtures were then centrifuged. 1 mL of 1-octanol phase and 1 mL of buffer were separately collected. Each phase was diluted to a suitable concentration and analysed by HPLC (Shimadzu DGU-20A3R) on a Shimadzu-GL WondaSil C18-WR column (λ = 254 nm) with an eluent of methanol/water (65/35, v/v, 1.0 ml/min). The log D value for each compound was calculated from the ratio of the peak areas using the following equation: Log D = log (Areaoct × x/Areabuf × y). x, y is the dilution factor.

c-MYC G4 DNA (FPu18T) = test: FRET-melting assay, FPu18T (c-MYC G4 DNA model); settings: 2 μM compounds

In the case of COc1ccc2cc3[n+](cc2c1OC)CCc1cc2c(cc1-3)OCO2 [Berberine], the IC50 (Sk-Hep-1 cells; Homo sapiens, SK-HEP1, 72 h) is reported as > 50 µM, the solubility at 30 min ([1]; PBS (50 mM, aqueous buffer, thermodynamic from solid), PBS (pH 7.4), HPLC, read-out: Solubility) is reported as 1.36 mg/mL and the IC50 (Hep3B cells; Homo sapiens) is reported as > 50 µM. The IC50 (Huh-7 cells; Homo sapiens) was > 50 µM, the “ΔTm(B) = Tm(F10T + compound) - Tm(F10T)” value (duplex DNA (F10T)) was 2.0 °C and the IC50 [2] was > 50 µM. The IC50 (HepG2 cells; Homo sapiens) was > 50 µM, the IC50 (normal hepatocytes L-02; Hepatocyte) was > 50 µM and the “tumour inhibitory rate (TIR, w/w)” value ([3]; 30 mg/kg) was 47.3%. For the same compound, the logD ([4]; 1-octanol/phosphate buffer (PBS), 1-octanol/PBS pH 7.4, shake flask, 37 °C, read-out: Log D) was -0.98 and the “ΔTm(A) = Tm(FPu18T + compound) - Tm(FPu18T)” value (c-MYC G4 DNA (FPu18T)) was 1.2 °C.
With CCCCCCCCc1c2[n+](cc3c(OCCCCCCCCCCN4CCOCC4)c(OC)ccc13)CCc1cc3c(cc1-2)OCO3.[Br-] [Compound 6l, 10-Methoxy-9-((10-morpholinodecyl)oxy)-13-octyl-5,6-dihydro-[1,3]dioxolo[4,5-g]isoquinolino[3,2-a]isoquinolin-7-ium bromide] the IC50 (HepG2 cells; Homo sapiens) was 1.28 ± 0.11 µM and the melting point was 135 to 137 °C.
In the case of CCCCCCCCc1c2[n+](cc3c(OCCCN(CC)CC)c(OC)ccc13)CCc1cc3c(cc1-2)OCO3.[Br-] [Compound 6a, 9–(3-(Diethylamino)propoxy)-10-methoxy-13-octyl-5,6-dihydro-[1,3]dioxolo[4,5-g]isoquinolino[3,2-a]isoquinolin-7-ium bromide], the IC50 (HepG2 cells; Homo sapiens) is reported as 6.82 ± 0.51 µM and the melting point is reported as 142 to 144 °C.
CCCCCCCCc1c2[n+](cc3c(OCCCCCCCCN4CCOCC4)c(OC)ccc13)CCc1cc3c(cc1-2)OCO3.[Br-] [Compound 6i, 10-Methoxy-9-((8-morpholinooctyl)oxy)-13-octyl-5,6-dihydro-[1,3]dioxolo[4,5-g]isoquinolino[3,2-a]isoquinolin-7-ium bromide] showed an IC50 (HepG2 cells; Homo sapiens) of 0.81 ± 0.08 µM and a melting point of 147 to 149 °C.
N.N.[Cl][Pt][Cl] [Cisplatin] gave an IC50 (Sk-Hep-1 cells; 72 h) of 6.52 ± 0.42 µM, an IC50 (Hep3B cells) of 11.2 ± 0.51 µM and an IC50 (Huh-7 cells) of 3.03 ± 0.63 µM. For the same compound, the IC50 (HepG2 cells) was 6.87 ± 0.31 µM and the IC50 (normal hepatocytes L-02) was 6.79 ± 0.46 µM.
Compound CCCCCCCCc1c2[n+](cc3c(OC)c(OC)ccc13)CCc1cc3c(cc1-2)OCO3.[Cl-] [Compound 3c, 9,10-Dimethoxy-13-octyl-5,6-dihydro-[1,3]dioxolo[4,5-g]isoquinolino[3,2-a]isoquinolin-7-ium chloride] has a solubility at 30 min ([1]; pH 7.4, aqueous buffer, thermodynamic from solid) of 1.12 mg/mL, an IC50 (HepG2 cells; Homo sapiens) of 4.12 ± 0.26 µM and a logD ([4]; pH 7.4) of 2.41.
For O=P1(N(CCCl)CCCl)NCCCO1 (centres unmarked) [CP, cyclophosphamide, reference compound], the “tumour inhibitory rate (TIR, w/w)” value ([3]; 20 mg/kg) was 64.2%.
Work on CCCCCCCCc1c2[n+](cc3c(OCCCCCCN4CCOCC4)c(OC)ccc13)CCc1cc3c(cc1-2)OCO3.[Br-] [Compound 6f, 10-Methoxy-9-((6-morpholinohexyl)oxy)-13-octyl-5,6-dihydro-[1,3]dioxolo[4,5-g]isoquinolino[3,2-a]isoquinolin-7-ium bromide] yielded an IC50 (HepG2 cells; Homo sapiens) of 1.27 ± 0.25 µM and a melting point of 164 to 166 °C.
CCCCCCCCc1c2[n+](cc3c(OCCCCCCCCN4CCCCC4)c(OC)ccc13)CCc1cc3c(cc1-2)OCO3.[Br-] [Compound 6j, 10-Methoxy-13-octyl-9-((8-(piperidin-1-yl)octyl)oxy)-5,6-dihydro-[1,3]dioxolo[4,5-g]isoquinolino[3,2-a]isoquinolin-7-ium bromide] gave an IC50 (HepG2 cells; Homo sapiens) of 1 ± 0.1 µM and a melting point of 144 to 146 °C.
For CCCCCCCCc1c2[n+](cc3c(OCCCCCCN4CCN(C)CC4)c(OC)ccc13)CCc1cc3c(cc1-2)OCO3.[Br-] [Compound 6h, 10-Methoxy-9-((6–(4-methylpiperazin-1-yl)hexyl)oxy)-13-octyl-5,6-dihydro-[1,3]dioxolo[4,5-g]isoquinolino[3,2-a]isoquinolin-7-ium bromide], the IC50 (HepG2 cells; Homo sapiens) was 1.47 ± 0.19 µM and the melting point was 165 to 167 °C.
